Data reported in US20220288004A1, “TREATMENT AND PREVENTION OF AGING RELATED-DISEASE AND/OR AGING BY THE INHIBITION OF SPHINGOLIPIDS” (ECOLE POLYTECHNIQUE FEDERALE DE LAUSANNE (EPFL), priority 2019, published 2022).

Key:
human primary myoblasts = test: Human primary myoblast differentiation; assay type: cell-based; conditions: 30 μM myriocin vs DMSO
Method: Cell culture and cell transfection. The C2C12 mouse myoblast cell line was obtained from the American Type Culture Collection (CRL-1772™). C2C12 cells or clones were cultured in growth medium consisting of Dulbecco's modified Eagle's medium (Gibco, 41966-029), 20% Fetal Bovine Serum (Gibco, 10270-106) and 100 U/mL penicillin and […] streptomycin (Gibco, 15140-122). To induce differentiation, FBS was substituted with 2% horse serum (Gibco, 16050-122). Trypsin-EDTA 0.05% (GIBCO, 25300-062) was used to detach cells. Human skeletal muscle cells were obtained from Lonza (SkMC, #CC-2561) and cultured in growth medium consisting of DMEM/F12 (Gibco, 10565018), 20% Fetal Bovine Serum (Gibco, 10270-106) and 100 U/mL penicillin and […] streptomycin (Gibco, 15140-122). To induce differentiation, FBS was reduced to 2% and kept in culture. All cells were maintained at 37° C. with 5% CO2. Cell transfections were done using TransiT (Mirus) according to the manufacturer's protocol with a 3:1 ratio of transfection agent to DNA. […]
Immunocytochemistry. […] The immunofluorescence images were acquired using either fluorescence or confocal microscopy. The myofusion index was calculated as the ratio of nuclei within myotubes to total nuclei. The myotube diameter was measured for 8 myotubes per image using ImageJ. Myotube area was calculated as the total area covered by myotubes.

mdx mice = test: Transplantation of MuSCs from myriocin treated donors into cardiotoxin-injured mdx recipients; assay type: in vivo, mouse
Source text: Decline in tissue regenerative potential is a major hallmark of mammalian aging, including skeletal muscle. It was next asked the question whether myriocin treatment induces functional improvement of MuSCs, boosting their regenerative capacity. MuSCs from aged mice treated or untreated with myriocin for 5 months were isolated, and transplanted into tibialis anterior (TA) muscles of recipient mice. The recipient mice were either aged (20-month-old) C57Bl/6JRj or aged (1-year-old) mdx mice, a mouse model of Duchenne muscular dystrophy lacking dystrophin protein (FIG. 4a). Before MuSC transplantation, injury was induced by cardiotoxin injection to TA of all recipient mice. […] At both 7 and 14 days after transplantation the inflammatory area was also smaller (FIG. 12a-b) in mdx recipients of MuSCs isolated from myriocin treated mice. […] Thus, transplantation of MuSCs derived from myriocin treated donors induce major morphological improvements following cardiotoxin-induced muscle injury.
Cardiotoxin-induced muscle damage and MuSC transplantation. […]
Histology. […] Microscopy images of fluorescence from muscle fibers were analyzed using the ImageJ software. Centralized nuclei percent, minimal Feret diameter and cross-sectional area in TA muscles were determined using the ImageJ software quantification of laminin, dystrophin, and DAPI-stained muscle images from VS120-S6-W slides scanner (Olympus). […] The mean cross-sectional area of muscle fibers was calculated as the average cross-sectional area of 2,000 fibers per from sample. 7-8 mouse samples per condition were used for histological quantification of donor mice. The eMyHC quantification is expressed as proportion of eMyHC positive signal over total TA cross sectional area. Following MuSC injection in CTX injected recipient mice, inflammation representing the regenerative stage of muscle was quantified by ImageJ software as proportion of inflammatory area over total area of the TA muscle cross section. The PAX7-positive cells were quantified as the average number of cells per field of more than 30 randomly chosen fields from a mouse TA. […]

C2C12 myoblasts = test: C2C12 myoblast differentiation; assay type: cell-based, mouse; conditions: C2C12, 30 μM myriocin vs DMSO
Method: Cell culture and cell transfection. The C2C12 mouse myoblast cell line was obtained from the American Type Culture Collection (CRL-1772™). C2C12 cells or clones were cultured in growth medium consisting of Dulbecco's modified Eagle's medium (Gibco, 41966-029), 20% Fetal Bovine Serum (Gibco, 10270-106) and 100 U/mL penicillin and […] streptomycin (Gibco, 15140-122). To induce differentiation, FBS was substituted with 2% horse serum (Gibco, 16050-122). Trypsin-EDTA 0.05% (GIBCO, 25300-062) was used to detach cells. Human skeletal muscle cells were obtained from Lonza (SkMC, #CC-2561) and cultured in growth medium consisting of DMEM/F12 (Gibco, 10565018), 20% Fetal Bovine Serum (Gibco, 10270-106) and 100 U/mL penicillin and […] streptomycin (Gibco, 15140-122). To induce differentiation, FBS was reduced to 2% and kept in culture. All cells were maintained at 37° C. with 5% CO2. Cell transfections were done using TransiT (Mirus) according to the manufacturer's protocol with a 3:1 ratio of transfection agent to DNA. C2C12 cells were grown confluent, and 30 μM myriocin or DMSO was added and cells were kept in growth medium for another 3 days. Sptlc1 clones were plated to reach confluency simultaneously and were kept in growth medium for 3 days before using them for immunocytochemistry or RNA isolation. The concentration of myriocin in medium for all experiments was 30 μM. A stock solution of 20 mM myriocin in DMSO was used dissolve myriocin, and a corresponding volume of DMSO without myriocin was used as control.
RNA isolation and real time qPCR. RNA was isolated using the RNeasy Mini kit (Qiagen, 74106) and reverse transcribed with the High-Capacity-RNA-to-cDNA kit (Thermo Fisher, 4387406). Gene expression was measured by qPCR using the Power SybrGreen Master mix (Thermo Fisher, 4367659). All quantitative polymerase chain reaction (PCR) results were calculated relative to the mean of the housekeeping gene Gapdh. The average of two technical replicates was used for each biological data point.
Immunocytochemistry. C2C12 cells cultured on a sterilized cover slip in 6-well plates (Greiner bio-one, CELLSTAR, 657160) were fixed in Fixx solution (Thermo Scientific, 9990244) for 15 min and permeabilized in 0.1% Triton X-100 (Amresco, 0694) solution for 15 min at room temperature. Cells were blocked in 3% BSA for 1 h at room temperature to avoid unspecific antibody binding and then incubated with primary antibody over night at 4° C. with gentle shaking. […] The immunofluorescence images were acquired using either fluorescence or confocal microscopy. The myofusion index was calculated as the ratio of nuclei within myotubes to total nuclei. The myotube diameter was measured for 8 myotubes per image using ImageJ. Myotube area was calculated as the total area covered by myotubes.

CCCCCCC(=O)CCCCCCC=CCC(O)C(O)C(N)(CO)C(=O)O (stereo not drawn) [myriocin, 2-Amino-3,4-dihydroxy-2-(hydroxymethyl)-14-oxoicos-6-enoic acid] was tested, and the human myoblast differentiation (human primary myoblasts) was “accelerated”, the myotube area (human primary myoblasts) was “larger” and the “inflammatory area of TA” value (mdx mice; 7 and 14 days after transplantation) was “smaller”. The “count of PAX7+ cells in TA” value (mdx mice; 7 days after transplantation) was “elevated count”, the “myogenesis of dystrophin-positive fibers” value (mdx mice; 7 days after transplantation) was “stimulated myogenesis” and the fusion index (C2C12 myoblasts) was “greater”. The myoblast differentiation (C2C12 myoblasts) was “accelerated”, the “myogenic transcript signature (Myog, Myh4, Myh1)” value (C2C12 myoblasts) was “upregulation” and the myotube area (C2C12 myoblasts) was “greater”.
